Data published in patent US8329645B2, “Polymyxin derivatives and uses thereof” (priority 2008, dated 2012).

Columns and labels:
[1] = tested on: E. coli IH3080; test: Sensitization to rifampin: growth inhibition around wells on LB plates containing rifampin; format: cell-based, Escherichia coli; conditions: in the absence of the compounds tested
[2] = tested on: E. coli CCUG41421; test: E-test MIC with or without NAB7061 (4 μg/ml), Mueller-Hinton agar; format: cell-based, Escherichia coli
Procedure, shortened: (§1)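 E-strip MIC determination, run as instructed by the manufacturer.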

[3] = tested on: E. coli CCUG41422; test: as above; format: cell-based, Escherichia coli
Procedure, shortened: as §1

[4] = tested on: E. coli CCUG41424; test: as above; format: cell-based, Escherichia coli
Procedure, shortened: as §1

[5] = tested on: E. coli CCUG41425; test: as above; format: cell-based, Escherichia coli
Procedure, shortened: as §1

[6] = tested on: E. coli CCUG41427; test: as above; format: cell-based, Escherichia coli
Procedure, shortened: as §1

[7] = tested on: E. coli CCUG41429; test: as above; format: cell-based, Escherichia coli
Procedure, shortened: as §1

[8] = tested on: E. coli CCUG41432; test: as above; format: cell-based, Escherichia coli
Procedure, shortened: as §1

[9] = tested on: E. coli IH3080; test: as above; format: cell-based, Escherichia coli
Procedure, shortened: as §1

[10] = tested on: E. coli NCTC13351; test: as above; format: cell-based, Escherichia coli
Procedure, shortened: as §1

[11] = tested on: E. coli NCTC13353; test: as above; format: cell-based, Escherichia coli
Procedure, shortened: as §1

[12] = tested on: E. coli ATCC25922; conditions: E. coli ATCC25922
Procedure, shortened: as §1

[13] = tested on: K. pneumoniae ATCC13883; conditions: K. pneumoniae ATCC13883
Procedure, shortened: as §1

[14] = tested on: K. pneumoniae CCUG45421; test: E-test MIC with or without NAB7061 (4 μg/ml), Mueller-Hinton agar; format: cell-based, Klebsiella pneumoniae
Experimental: (§2) MICs were determined by using E-strips (Biodisk Ltd., Solna, Sweden) according to the manufacturer's instructions.
(§3) The strains originated from ATCC (11 strains), CCUG (11 strains), and NCTC (The National Collection of Type Cultures, Colindale, U.K.; 2 strains). Eight strains (the F-strains) were purchased from Mobidiag Ltd., Helsinki, Finland.

[15] = tested on: K. pneumoniae F136; test: as above; format: cell-based, Klebsiella pneumoniae
Experimental: as §2, §3

[16] = tested on: K. pneumoniae F144; test: as above; format: cell-based, Klebsiella pneumoniae
Experimental: as §2, §3

[17] = tested on: K. pneumoniae F145; test: as above; format: cell-based, Klebsiella pneumoniae
Experimental: as §2, §3

[18] = tested on: K. oxytoca ATCC13182; test: as above; format: cell-based, Klebsiella oxytoca
Experimental: as §2, §3

[19] = tested on: K. oxytoca CCUG51683; test: as above; format: cell-based, Klebsiella oxytoca
Experimental: as §2, §3

[20] = tested on: E. cloacae ATCC23355; test: as above; format: cell-based, Enterobacter cloacae
Procedure, shortened: as §1

[21] = tested on: E. cloacae CCUG52947; test: as above; format: cell-based, Enterobacter cloacae
Procedure, shortened: as §1

[22] = tested on: E. cloacae F230; test: as above; format: cell-based, Enterobacter cloacae
Procedure, shortened: as §1

[23] = tested on: E. cloacae F232; test: as above; format: cell-based, Enterobacter cloacae
Procedure, shortened: as §1

[24] = tested on: C. freundii ATCC8090; test: as above; format: cell-based, Citrobacter freundii
Experimental: as §2, §3

[25] = tested on: Ac. baumannii ATCC19606; test: as above; format: cell-based, Acinetobacter baumannii; conditions: Ac. baumannii ATCC19606
Experimental: as §2, §3

[26] = tested on: Ac. baumannii F263; test: as above; format: cell-based, Acinetobacter baumannii; conditions: Ac. baumannii F263
Experimental: as §2, §3

[27] = tested on: Ac. baumannii F264; test: as above; format: cell-based, Acinetobacter baumannii; conditions: Ac. baumannii F264
Experimental: as §2, §3

[28] = tested on: P. vulgaris ATCC13315; test: as above; format: cell-based
Experimental: as §2, §3

[29] = tested on: S. maltophilia ATCC17444; test: as above; format: cell-based
Experimental: as §2, §3

[30] = tested on: S. marcescens ATCC8100; test: as above; format: cell-based, Serratia marcescens
Experimental: as §2, §3

[31] = tested on: P. mirabilis ATCC29906; test: as above; format: cell-based, Proteus mirabilis
Experimental: as §2, §3

[32] = tested on: P. aeruginosa ATCC27853; test: as above; format: cell-based, Pseudomonas aeruginosa
Experimental: as §2, §3

[33] = tested on: P. aeruginosa CCUG51971; test: as above; format: cell-based, Pseudomonas aeruginosa
Experimental: as §2, §3

[34] = tested on: P. aeruginosa F58; test: as above; format: cell-based, Pseudomonas aeruginosa
Experimental: as §2, §3

[35] = tested on: A. baumannii ATCC19606; test: E-test MIC of antibiotics on Mueller Hinton agar containing increasing concentrations of NAB739; format: cell-based, Acinetobacter baumannii
[36] = tested on: A. baumannii F264; test: as above; format: cell-based, Acinetobacter baumannii
[37] = tested on: P. aeruginosa ATCC 27853; test: as above; format: cell-based, Pseudomonas aeruginosa
[38] = tested on: both Acinetobacter strains (ATCC 19606 and F264); test: E-test sensitization by NAB739, both strains; format: cell-based, Acinetobacter baumannii

CO[C@H]1/C=C/O[C@@]2(C)Oc3c(C)c(O)c4c(O)c(c(/C=N/N5CCN(C)CC5)c(O)c4c3C2=O)NC(=O)/C(C)=C\C=C\[C@H](C)[C@H](O)[C@@H](C)[C@@H](O)[C@@H](C)[C@H](OC(C)=O)[C@@H]1C [Rifampin]
concentration of rifampin needed for the inhibitory effect [1]: 10 µg/mL
MIC of antibiotic in the presence of 4 μg/ml of NAB 7061 [2]: 0.032 to 0.064 µg/mL
Sensitization factor to antibiotic (MIC without / with 4 μg/ml of NAB 7061) [3]: 170-256
MIC of antibiotic in the presence of 4 μg/ml of NAB 7061 [4]: 0.064 to 0.094 µg/mL
Sensitization factor to antibiotic (MIC without / with 4 μg/ml of NAB 7061) [4]: 85-94
MIC of antibiotic in the presence of 4 μg/ml of NAB 7061 [5]: 0.016 to 0.023 µg/mL
Sensitization factor to antibiotic (MIC without / with 4 μg/ml of NAB 7061) [5]: 200-260
MIC of antibiotic in the presence of 4 μg/ml of NAB 7061 [6]: 0.032 to 0.064 µg/mL
Sensitization factor to antibiotic (MIC without / with 4 μg/ml of NAB 7061) [6]: 100-250
MIC of antibiotic in the presence of 4 μg/ml of NAB 7061 [7]: 0.032 µg/mL
MIC of antibiotic in the presence of 4 μg/ml of NAB 7061 [8]: 0.032 µg/mL
Sensitization factor to antibiotic (MIC without / with 4 μg/ml of NAB 7061) [8]: 180-250
MIC of antibiotic in the presence of 4 μg/ml of NAB 7061 [9]: 0.023 to 0.047 µg/mL
Sensitization factor to antibiotic (MIC without / with 4 μg/ml of NAB 7061) [9]: 170-350
MIC of antibiotic in the presence of 4 μg/ml of NAB 7061 [10]: 0.032 to 0.047 µg/mL
Sensitization factor to antibiotic (MIC without / with 4 μg/ml of NAB 7061) [10]: 340-500
MIC of antibiotic in the presence of 4 μg/ml of NAB 7061 [11]: 0.064 µg/mL
MIC of antibiotic in the presence of 4 μg/ml of NAB 7061 [12]: 0.016 to 0.047 µg/mL
Sensitization factor to antibiotic (MIC without / with 4 μg/ml of NAB 7061) [12]: 250-750
Sensitization factor to antibiotic (MIC without / with 4 μg/ml of NAB 7061) [13]: 250-500
MIC of antibiotic in the presence of 4 μg/ml of NAB 7061 [14]: 2 to 3 µg/mL
Sensitization factor to antibiotic (MIC without / with 4 μg/ml of NAB 7061) [14]: 10-20
MIC of antibiotic in the presence of 4 μg/ml of NAB 7061 [15]: 0.75 µg/mL
Sensitization factor to antibiotic (MIC without / with 4 μg/ml of NAB 7061) [15]: >43
MIC of antibiotic in the presence of 4 μg/ml of NAB 7061 [16]: 0.19 µg/mL
Sensitization factor to antibiotic (MIC without / with 4 μg/ml of NAB 7061) [16]: >170
MIC of antibiotic in the presence of 4 μg/ml of NAB 7061 [17]: 0.19 to 0.25 µg/mL
Sensitization factor to antibiotic (MIC without / with 4 μg/ml of NAB 7061) [17]: 170
MIC of antibiotic in the presence of 4 μg/ml of NAB 7061 [18]: 0.032 to 0.047 µg/mL
Sensitization factor to antibiotic (MIC without / with 4 μg/ml of NAB 7061) [18]: 680-750
MIC of antibiotic in the presence of 4 μg/ml of NAB 7061 [19]: 0.012 to 0.023 µg/mL
Sensitization factor to antibiotic (MIC without / with 4 μg/ml of NAB 7061) [19]: 700-2000
MIC of antibiotic in the presence of 4 μg/ml of NAB 7061 [20]: 0.008 to 0.016 µg/mL
Sensitization factor to antibiotic (MIC without / with 4 μg/ml of NAB 7061) [20]: 750-1500
MIC of antibiotic in the presence of 4 μg/ml of NAB 7061 [21]: 0.032 to 0.047 µg/mL
Sensitization factor to antibiotic (MIC without / with 4 μg/ml of NAB 7061) [21]: 500-1000
MIC of antibiotic in the presence of 4 μg/ml of NAB 7061 [22]: 0.016 to 0.032 µg/mL
Sensitization factor to antibiotic (MIC without / with 4 μg/ml of NAB 7061) [22]: 1500
MIC of antibiotic in the presence of 4 μg/ml of NAB 7061 [23]: 0.023 µg/mL
Sensitization factor to antibiotic (MIC without / with 4 μg/ml of NAB 7061) [23]: 1400
MIC of antibiotic in the presence of 4 μg/ml of NAB 7061 [24]: 0.023 to 0.032 µg/mL
Sensitization factor to antibiotic (MIC without / with 4 μg/ml of NAB 7061) [24]: 500-1000
Sensitization factor to antibiotic (MIC without / with 4 μg/ml of NAB 7061) [25]: 24-32
MIC of antibiotic in the presence of 4 μg/ml of NAB 7061 [26]: 0.032 to 0.19 µg/mL
Sensitization factor to antibiotic (MIC without / with 4 μg/ml of NAB 7061) [27]: 32
MIC of antibiotic in the presence of 4 μg/ml of NAB 7061 [28]: 1 to 1.5 µg/mL
Sensitization factor to antibiotic (MIC without / with 4 μg/ml of NAB 7061) [28]: <2
MIC of antibiotic in the presence of 4 μg/ml of NAB 7061 [29]: 2 µg/mL
Sensitization factor to antibiotic (MIC without / with 4 μg/ml of NAB 7061) [29]: 4-8
MIC of antibiotic in the presence of 4 μg/ml of NAB 7061 [30]: 16 µg/mL
Sensitization factor to antibiotic (MIC without / with 4 μg/ml of NAB 7061) [30]: <2
MIC of antibiotic in the presence of 4 μg/ml of NAB 7061 [31]: 1 to 6 µg/mL
Sensitization factor to antibiotic (MIC without / with 4 μg/ml of NAB 7061) [31]: <2
MIC of antibiotic in the presence of 4 μg/ml of NAB 7061 [32]: 12 to 16 µg/mL
Sensitization factor to antibiotic (MIC without / with 4 μg/ml of NAB 7061) [32]: 2
MIC of antibiotic in the presence of 4 μg/ml of NAB 7061 [33]: >32 µg/mL
Sensitization factor to antibiotic (MIC without / with 4 μg/ml of NAB 7061) [33]: <2
MIC of antibiotic in the presence of 4 μg/ml of NAB 7061 [34]: >32 µg/mL
Sensitization factor to antibiotic (MIC without / with 4 μg/ml of NAB 7061) [34]: <2
MIC of antibiotic in the presence of NAB739 ([35]; NAB 739 0 μg/ml): 4 µg/mL
MIC of antibiotic in the presence of NAB739 ([35]; NAB 739 0.5 μg/ml): 0.047 µg/mL
MIC of antibiotic in the presence of NAB739 ([35]; NAB 739 1 μg/ml): 0.006 µg/mL
MIC of antibiotic in the presence of NAB739 ([36]; NAB 739 0 μg/ml): 12 µg/mL
MIC of antibiotic in the presence of NAB739 ([36]; NAB 739 0.5 μg/ml): 0.094 µg/mL
MIC of antibiotic in the presence of NAB739 ([36]; NAB 739 1 μg/ml): 0.016 µg/mL
MIC of antibiotic in the presence of NAB739 ([36]; NAB 739 […]): 0.38 µg/mL
MIC of antibiotic in the presence of NAB739 ([37]; NAB 739 0 μg/ml): 32 µg/mL
MIC of antibiotic in the presence of NAB739 ([37]; NAB 739 0.5 μg/ml): 32 µg/mL
MIC of antibiotic in the presence of NAB739 ([37]; NAB 739 1 μg/ml): 16 µg/mL
MIC of antibiotic in the presence of NAB739 ([37]; NAB 739 2 μg/ml): 4 µg/mL
MIC of antibiotic in the presence of NAB739 ([37]; NAB 739 […]): 32 µg/mL
sensitization factors to antibiotic at NAB739 0.5 μg/ml [38]: 85-128
